# Results from US20110250133A1, “GASTRIN […] PEPTIDE COMPOUNDS” (priority 2003, published 2011).
# Experiments:
# [1] = target: T1, NMB-R (Rattus norvegicus, UniProt P24053); assay: Competition with 125I-NMB for NMB-R in C6 cells (linker specificity); type: binding, rodent; conditions: for receptor subtype preference (GRP-R vs NMB-R): from IC50 with 125I-NMB (C6) and 125I-BBN (PC3), cut off 10x the IC50 of [Tyr4]-BBN;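 for all read-outs here: test cells: rodent glioblastoma C6 line carrying NMB-R, human prostate cancer PC3 line carrying GRP-R, affinity fitted by one-site competition nonlinear regression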
# T1 construct: C6, an NMB-R expressing rodent glioblastoma cell line; host or cells: C6 glioblastoma cells, intact adherent cells
# T1 sequence (P24053 1-390): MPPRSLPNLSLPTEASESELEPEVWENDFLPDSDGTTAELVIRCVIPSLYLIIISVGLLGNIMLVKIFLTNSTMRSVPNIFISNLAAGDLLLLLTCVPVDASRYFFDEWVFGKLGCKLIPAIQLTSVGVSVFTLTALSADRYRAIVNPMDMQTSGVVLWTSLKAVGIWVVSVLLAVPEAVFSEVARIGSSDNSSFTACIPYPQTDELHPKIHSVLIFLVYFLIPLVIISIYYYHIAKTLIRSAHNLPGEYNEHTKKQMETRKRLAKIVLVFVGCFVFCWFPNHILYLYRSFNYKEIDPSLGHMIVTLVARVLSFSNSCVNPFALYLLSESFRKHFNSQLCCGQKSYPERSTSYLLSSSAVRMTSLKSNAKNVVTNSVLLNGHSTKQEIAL
# Description: Two cell lines, C6, an NMB-R expressing rodent glioblastoma cell line and PC3, a GRP-R expressing human prostate cancer cell line, were used in this assay. The affinity of various unlabeled compounds for each receptor subtype (NMB-R and GRP-R) was determined indirectly by measuring its ability to compete with the binding of ^125I-NMB or ^125I-BBN to its corresponding receptors in C6 and PC3 cells.
# Cells for the assays were plated at a concentration of 9.6×10^4/well in 48 well poly-lysine coated plates (Beckton Dickinson Biocoat). PC3 were obtained from ATCC(CRL-1435) and cultured in RPMI 1640 (ATCC) supplemented with 2 mM L-glutamine, 1.5 g/L Sodium bicarbonate, 10 mM HEPES and 10% FBS. […] PC3 cells for the assays were plated at a concentration of 2.0×10^4 cells/well in 96-well white/clear bottom plates (Falcon Optilux-I). Plates were used for the assays on day 2 of the post-plating.
# RPMI 1640 (ATCC) containing 25 mM HEPES, 0.2% BSA fraction V, 1.0 mM AEBSF (CAS # 3087-99-7) and 0.1% Bacitracin (CAS # 1405-87-4), pH 7.4. Custom made ^125I-[Tyr^0]NMB, >2.0 Ci/μmole (Amersham Life Science) [^125I-NMB] and commercially available ^125I-[Tyr^4]BBN, >2.0 Ci/μmole (Perkin Elmer Life Science) [^125I-BBN] were used as radioligands.
# Using a 48-well plate assay system (for C6 study) competition experiments were performed using ^125I-NMB. […] Selection of compounds for the assay was based on linker subtype.
# The binding parameters obtained from the studies were analyzed using a one-site competition non-linear regression analysis with GraphPad Prism. The relative affinity of various compounds for NMB-R in C6 cells were compared with those obtained using commercially available [Tyr^4]-BBN and [Tyr^0]-NMB. To distinguish the GRP-R preferring compounds from NMB-R plus GRP-R preferring compounds, IC50 values obtained for each compound were compared with those obtained from [Tyr^4-BBN with ^125I-NMB on C6 cells.
# [2] = tested on: T47D human breast cancer cells; assay: Effect of drug treatment on GRP receptor binding (177Lu-AMBA) in T47D cells; type: cell-based; conditions: for decrease in 177Lu-AMBA binding (GRP receptor specific signal per cell) / increase in 177Lu-AMBA binding (GRP receptor specific signal per cell): relative to untreated control; for decrease in 177Lu-AMBA binding (GRP receptor specific signal per cell): drug 0.1-1.0 μM (4-OH Tamoxifen 0.001-0.1 μM); for increase in 177Lu-AMBA binding (GRP receptor specific signal per cell): drug 0.1-1.0 μM (gefitinib 0.1-10 μM)
# Description: T-47D breast cancer cells (human metastatic mammary gland ductal adenocarcinoma isolated from pleural effusion, ER+, PR+) were obtained from the American Type Culture Collection.
# [3] = tested on: PC-3 prostate cancer cells; assay: Effect of drug treatment on GRP receptor binding (177Lu-AMBA) in PC-3 cells; type: cell-based, human; conditions: for change in GRP receptor specific signal per cell (177Lu-AMBA binding): drug 0.1-1.0 μM (4-OH Tamoxifen 0.001-0.1 μM); for decrease in 177Lu-AMBA binding (GRP receptor specific signal per cell): relative to untreated control, drug 0.1-1.0 μM (gefitinib 0.1-10 μM)
# Description: (§1) RPMI 1640 supplemented with 20 mM HEPES, 0.1% BSA (w/v), 0.5 mM PMSF (AEBSF), bacitracin (50 mg/500 ml), pH 7.4.
# (§2) Incubations were stopped by the addition of 200 μL of ice-cold binding buffer. Plates were washed three more times with binding buffer, 140 μL of scintillation fluid was added to each well, the plates were sealed and analyzed on a Microβ plate reader (Microbeta Trilux, Perkin-Elmer).
# PC-3 (human prostate adenocarcinoma, bone metastasis, AR-, ER) were obtained from the American Type Culture Collection. The growth medium for PC-3 cells is RPMI 1640 (10-041-CM, Mediatech, Inc), supplemented with 10% heat inactivated FBS (Hyclone, SH30070.03) and PSF-1× (as in Example LXVI). The binding buffer, lapatinib solutions, treatment method and cell binding assay is the same as in Example LXVI.
# [4] = tested on: BT-474 human breast cancer cells; assay: Effect of drug treatment on GRP receptor binding (177Lu-AMBA) in BT-474 cells; type: cell-based; conditions: for increase in 177Lu-AMBA binding (GRP receptor specific signal per cell): drug 0.1-1.0 μM (β2-estradiol 1 nM); for change in GRP receptor specific signal per cell (177Lu-AMBA binding): drug 0.1-1.0 μM (gefitinib 0.1-10 μM); for change in 177Lu-AMBA uptake (GRP-R) on a viable cell basis, BT-474: ↑ increase, ↓ decrease vs untreated
# Description: BT-474 breast cancer cells (human primary invasive ductal carcinoma; ER+, PR+, amplified HER2/neu+) were obtained from the American Type Culture Collection. The growth medium for BT-474 cells is Hybri-care Medium (Cat No: 46X, ATCC) supplemented with 10% heat inactivated FBS (Hyclone, SH30070.03), 0.2% NaHCO3, and antibiotic/antimycotic “PSF-1×” (GibcoBRL, 15240-062) for a final concentration of penicillin-streptomycin (1×, 100 units/mL), and fungizone (0.25 μg/mL). […] Cells for binding experiments were plated on Day 0 at 5.6×10^4 cells/cm^2 in 96-well white/clear bottom microtiter plates (Falcon Optilux-I), or 96 well black/clear collagen I cellware plates (Beckton Dickinson Biocoat).
# as §1, §2
# Treatment: BT-474 cells were plated on Day 0 and treated on Days 1 and 2 (DT1, DT2).
# [5] = tested on: PC3 cells; assay: Internalization and efflux assay in PC3 cells; type: cell-based, human; conditions: 125I-BBN or Lu-177 complexes
# Description: These studies were conducted in a 96-well plate. […] Incubations were stopped by the addition of 200 μl of ice-cold binding buffer. Plates were washed twice with binding buffer. To remove surface-bound radioligand, the cells were incubated with 0.2M acetic acid (in saline), pH 2.8 for 2 min. Plates were centrifuged and the acid wash media were collected to determine the amount of radioactivity which was not internalized. The cells were collected to determine the amount of internalized ^125I-BBN, and all samples were analyzed in the gamma counter. Data for the internalization assay was normalized by comparing counts obtained at the various time points with the counts obtained at the final time point (T=40 min).
# For the efflux studies, after loading the PC3 cells with ^125I-BBN or radiolabeled compounds of the invention for 40 min at 37° C., the unbound material was filtered, and the % of internalization was determined as above. The cells were then resuspended in binding buffer at 37° C. for up to 3 h.
# [6] = target: T2, GRP-R (Homo sapiens, UniProt P30550); assay: Competition studies of modified BBN analogs with 125I-BBN for GRP-R in PC3 cells (Example LXI); type: binding
# T2 construct: host or cells: PC3 (PC-3) human prostate cancer cells, intact adherent cells
# T2 sequence (P30550 whole entry): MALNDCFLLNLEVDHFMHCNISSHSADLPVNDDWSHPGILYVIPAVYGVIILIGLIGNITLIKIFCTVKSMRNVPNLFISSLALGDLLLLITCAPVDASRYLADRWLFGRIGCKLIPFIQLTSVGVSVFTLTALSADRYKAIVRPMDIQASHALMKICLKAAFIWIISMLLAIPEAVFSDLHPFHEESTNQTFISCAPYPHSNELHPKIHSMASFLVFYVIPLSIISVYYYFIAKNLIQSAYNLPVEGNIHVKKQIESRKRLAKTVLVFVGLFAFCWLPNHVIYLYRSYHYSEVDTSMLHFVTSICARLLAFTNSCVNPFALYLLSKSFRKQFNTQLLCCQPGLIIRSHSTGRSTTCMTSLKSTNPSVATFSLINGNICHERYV
# Description: PC3 cell lines were obtained from ATCC(CRL-1435) and cultured in RPMI 1640 (ATCC) supplemented with 2 mM L-glutamine, 1.5 g/L Sodium bicarbonate, 10 mM HEPES and 10% FBS. […] PC3 cells for the assays were plated at a concentration of 2.0×10^4 cells/well in a 96-well white/clear bottom plates (Falcon Optilux-I). Plates were used for the assays on day 2 of the post-plating.
# ^125I-BBN (Cat # NEX258) was obtained from PerkinElmer Life Sciences.
# All compounds tested were dissolved in binding buffer and appropriate dilutions were also done in binding buffer. PC3 cells for assay were seeded at a concentration of 2.0×10^4/well either in 96-well black/clear collagen I cellware plates (Beckton Dickinson Biocoat). Plates were used for binding studies on day 2 post-plating. The plates were checked for confluency (>90% confluent) prior to assay. […] The studies were conducted with an assay volume of 75 μL per well. Triplicate wells were used for each data point. After the addition of the appropriate solutions, plates were incubated for 1 hour at 4° C. Incubation was ended by the addition of 200 μL of ice-cold incubation buffer. Plates were washed 5 times and blotted dry. Radioactivity was detected using either a LKB CompuGamma counter or a microplate scintillation counter.
# [7] = yes / —, cut off 10x the IC50 of [Tyr4]-BBN with 125I-NMB on C6 cells
# [8] = BT-474, relative to untreated control
compound,measurement,setting,value
DO3A-monoamide-Apa3-QWAVGHLM-NH2,receptor subtype preference (GRP-R vs NMB-R),[1],dual affinity for both GRP-R and NMB-R
same,GRP-R and NMB-R (binds both),[1]; [7],yes
C[C@]12CC[C@@H]3c4ccc(O)cc4CC[C@H]3[C@@H]1CC[C@@H]2O [β2-estradiol],change in GRP receptor specific signal per cell (177Lu-AMBA binding),[2]; T-47D,did not change
same,"change in 177Lu-AMBA binding (GRP receptor specific signal per cell) vs untreated controls, T47D","[2]; Table 25, range 0.001-0.1 μM",0%
same,change in GRP receptor specific signal per cell (177Lu-AMBA binding),[3]; PC-3,no change
same,"change in 177Lu-AMBA binding (GRP receptor specific signal per cell) vs untreated controls, PC-3","[3]; Table 25, range 0.001-0.1 μM",0%
same,increase in 177Lu-AMBA binding (GRP receptor specific signal per cell),[4]; [8],47%
same,"change in 177Lu-AMBA binding (GRP receptor specific signal per cell) vs untreated controls, BT-474","[4]; Table 25, range 0.001-0.1 μM",47%
anastrozole,decrease in 177Lu-AMBA binding (GRP receptor specific signal per cell),[2]; T-47D,up to 10%
same,decrease in 177Lu-AMBA binding (GRP receptor specific signal per cell),[3]; PC-3,up to 10%
same,change in GRP receptor specific signal per cell (177Lu-AMBA binding),[4]; BT-474,no change
same,"change in 177Lu-AMBA uptake (GRP-R) on a viable cell basis, BT-474",[4]; drug 0.1-1.0 μM,NC (NC: Little(<10%) or no change in Lu-AMBA uptake)
DO3A-monoamide-Aoc-QWAVGHLM-NH2,Internalisation (40 minutes),[5]; 40 min at 37° C.,89%
same,Efflux (2 h),[5]; 2 h at 37° C. after 40 min loading,28%
gefitinib,increase in 177Lu-AMBA binding (GRP receptor specific signal per cell),[2]; T-47D,up to 20%
same,decrease in 177Lu-AMBA binding (GRP receptor specific signal per cell),[3]; PC-3,20-40%
same,change in GRP receptor specific signal per cell (177Lu-AMBA binding),[4]; BT-474,no change
same,"change in 177Lu-AMBA uptake (GRP-R) on a viable cell basis, BT-474",[4]; drug 0.1-10 μM,NC (NC: Little(<10%) or no change in Lu-AMBA uptake)
lapatinib,decrease in cell proliferation,"[2]; T-47D, highest concentration",≤ 35%
same,increase in 177Lu-AMBA binding (GRP receptor specific signal per cell),[2]; T-47D,up to 50%
same,change in proliferation,"[3]; PC-3, 0.1-1.0 μM",no change
same,change in GRP receptor specific signal per cell (177Lu-AMBA binding),[3]; PC-3,no change
same,"change in 177Lu-AMBA uptake (GRP-R) on a viable cell basis, PC-3","[3]; drug 0.1-1.0 μM, ↑ increase, ↓ decrease vs untreated",NC (NC: Little(<10%) or no change in Lu-AMBA uptake)
same,decrease in cell proliferation,"[4]; BT-474, highest concentration",≤ 65%
same,increase in 177Lu-AMBA binding (GRP receptor specific signal per cell),[4]; [8],up to 140%
erlotinib,increase in 177Lu-AMBA binding (GRP receptor specific signal per cell),[2]; T-47D,5-20%
same,decrease in 177Lu-AMBA binding (GRP receptor specific signal per cell),[3]; PC-3,5-20%
same,change in GRP receptor specific signal per cell (177Lu-AMBA binding),[4]; BT-474,no change
same,"change in 177Lu-AMBA uptake (GRP-R) on a viable cell basis, BT-474",[4]; drug 0.1-1.0 μM,NC (NC: Little(<10%) or no change in Lu-AMBA uptake)
"N-[4-[[[[4,7,10-Tris(carboxymethyl)-1,4,7,10-tetraazacyclododec-1-yl]acetyl]glycyl]amino]-3-methoxybenzoyl]-L-glutaminyl-L-tryptophyl-1-alanyl-L-valyl-glycyl-L-histidyl-L-leucyl-L-methioninamide [Compound L240]",receptor subtype preference (GRP-R vs NMB-R),[1],selective affinity to GRP-R
DO3A-monoamide-Nal1-Bpa4-QWAVGHLM-NH2,receptor subtype preference (GRP-R vs NMB-R),[1],selective affinity towards GRP-R
same,GRP-R (GRP-R preferring),[1]; [7],yes
DO3A-monoamide-Nal1-Bip-QWAVGHLM-NH2,receptor subtype preference (GRP-R vs NMB-R),[1],selective affinity towards GRP-R
same,GRP-R (GRP-R preferring),[1]; [7],yes
bortezomib,decrease in 177Lu-AMBA binding (GRP receptor specific signal per cell),[2]; T-47D,up to 50%
same,decrease in 177Lu-AMBA binding (GRP receptor specific signal per cell),[3]; PC-3,up to 60%
same,decrease in 177Lu-AMBA binding (GRP receptor specific signal per cell),"[4]; BT-474, relative to untreated control, drug 0.1-1.0 μM (4-OH Tamoxifen 0.001-0.1 μM)",up to 50%
"N-[(3β,5β,12α)-3-[[[4,7,10-Tris(carboxymethyl)-1,4,7,10-tetraazacyclododec-1-yl]acetyl]amino]-glycyl-4-aminobenzoyl-L-leucyl-L-tryptophyl-L-alanyl-L-valinyl-glycyl-L-serinyl-L-phenylalanyl-L-methioninamide [Compound L225]",competition at the GRP-R,[6],reduces competition at the GRP-R
